From patent US10670605B2, “Cysteine reactive probes and uses thereof” (The Scripps Research Institute, priority 2015, dated 2020)

What was measured:
Assay in all cases: Competitive isoTOP-ABPP, cell lysates
Assay type in all cases: binding
ADA C75 (P00813) = biological target: T1, ADA C75 (P00813) (Homo sapiens, UniProt P00813); conditions: for isoTOP-ABPP ratio (reactivity profile), P00813_C75: 500 μm in-vitro ramos; for isoTOP-ABPP reactivity ratio, P00813_C75 / isoTOP-ABPP reactivity profile ratio, P00813_C75: 500 μm, in-vitro_ramos
T1 sequence (P00813 1-363): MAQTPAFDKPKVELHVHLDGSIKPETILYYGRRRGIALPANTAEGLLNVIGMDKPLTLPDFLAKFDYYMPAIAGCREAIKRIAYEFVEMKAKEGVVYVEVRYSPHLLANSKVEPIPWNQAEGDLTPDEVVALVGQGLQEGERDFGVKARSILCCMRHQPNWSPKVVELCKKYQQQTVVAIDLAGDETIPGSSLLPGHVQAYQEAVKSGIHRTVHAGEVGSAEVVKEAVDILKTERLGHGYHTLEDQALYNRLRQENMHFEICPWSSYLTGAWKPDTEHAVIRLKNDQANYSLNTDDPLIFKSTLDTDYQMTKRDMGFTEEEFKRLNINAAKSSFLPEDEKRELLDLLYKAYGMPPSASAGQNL

IRF4 C194 (Q15306) = biological target: T2, IRF4 C194 (Q15306) (Homo sapiens, UniProt Q15306); conditions: for isoTOP-ABPP ratio (reactivity profile), Q15306_C194: 500 μm in-vitro ramos; for isoTOP-ABPP reactivity ratio, Q15306_C194 / isoTOP-ABPP reactivity profile ratio, Q15306_C194: 500 μm, in-vitro_ramos
T2 sequence (Q15306 1-451): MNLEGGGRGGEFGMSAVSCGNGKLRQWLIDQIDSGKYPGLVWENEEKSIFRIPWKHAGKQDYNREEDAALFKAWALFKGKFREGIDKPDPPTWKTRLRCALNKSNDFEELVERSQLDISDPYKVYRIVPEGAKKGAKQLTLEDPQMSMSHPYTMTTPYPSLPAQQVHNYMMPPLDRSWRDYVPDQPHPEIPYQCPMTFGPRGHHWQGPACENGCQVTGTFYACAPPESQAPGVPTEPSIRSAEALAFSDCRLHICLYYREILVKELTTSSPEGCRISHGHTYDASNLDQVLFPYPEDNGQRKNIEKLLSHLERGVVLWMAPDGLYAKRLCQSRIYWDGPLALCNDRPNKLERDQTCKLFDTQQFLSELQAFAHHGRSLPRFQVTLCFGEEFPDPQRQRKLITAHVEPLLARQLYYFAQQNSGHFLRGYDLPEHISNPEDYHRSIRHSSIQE

PDE12 C108 (Q6L8Q7) = biological target: T3, PDE12 C108 (Q6L8Q7) (Homo sapiens, UniProt Q6L8Q7); conditions: for isoTOP-ABPP reactivity ratio, Q6L8Q7_C108 / isoTOP-ABPP reactivity profile ratio, Q6L8Q7_C108: 500 μm
T3 sequence (Q6L8Q7 43-609): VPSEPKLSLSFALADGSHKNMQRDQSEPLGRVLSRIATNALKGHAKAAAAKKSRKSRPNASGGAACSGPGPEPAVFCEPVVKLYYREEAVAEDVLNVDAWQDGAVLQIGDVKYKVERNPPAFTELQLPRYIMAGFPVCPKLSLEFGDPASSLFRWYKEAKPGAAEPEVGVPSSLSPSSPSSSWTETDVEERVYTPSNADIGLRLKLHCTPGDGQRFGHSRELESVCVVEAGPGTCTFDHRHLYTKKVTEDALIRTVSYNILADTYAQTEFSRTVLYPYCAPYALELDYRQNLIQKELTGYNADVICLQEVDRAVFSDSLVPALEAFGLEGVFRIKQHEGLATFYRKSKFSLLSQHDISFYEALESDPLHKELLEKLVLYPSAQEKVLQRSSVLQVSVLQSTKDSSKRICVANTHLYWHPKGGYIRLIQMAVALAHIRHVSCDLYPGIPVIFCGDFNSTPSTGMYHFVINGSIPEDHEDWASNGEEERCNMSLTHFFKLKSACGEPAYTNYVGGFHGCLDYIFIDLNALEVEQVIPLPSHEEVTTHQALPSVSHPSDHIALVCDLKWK

UCHL3 C95 (P15374) = biological target: T4, UCHL3 C95 (P15374) (Homo sapiens, UniProt P15374); conditions: for isoTOP-ABPP reactivity ratio, P15374_C95 / isoTOP-ABPP reactivity profile ratio, P15374_C95: 500 μm
T4 sequence (P15374 1-230): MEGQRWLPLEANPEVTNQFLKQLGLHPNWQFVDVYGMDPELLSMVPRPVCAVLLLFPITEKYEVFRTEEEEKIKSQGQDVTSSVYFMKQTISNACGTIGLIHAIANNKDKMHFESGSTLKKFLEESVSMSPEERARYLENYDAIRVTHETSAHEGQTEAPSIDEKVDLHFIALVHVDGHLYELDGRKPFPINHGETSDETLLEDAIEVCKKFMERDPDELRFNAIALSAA

SAMHD1 C522 (Q9Y3Z3) = SAMHD1 C522 (Q9Y3Z3) (Homo sapiens, UniProt Q9Y3Z3)
SAMHD1 C522 (Q9Y3Z3), sequence (Q9Y3Z3 whole entry): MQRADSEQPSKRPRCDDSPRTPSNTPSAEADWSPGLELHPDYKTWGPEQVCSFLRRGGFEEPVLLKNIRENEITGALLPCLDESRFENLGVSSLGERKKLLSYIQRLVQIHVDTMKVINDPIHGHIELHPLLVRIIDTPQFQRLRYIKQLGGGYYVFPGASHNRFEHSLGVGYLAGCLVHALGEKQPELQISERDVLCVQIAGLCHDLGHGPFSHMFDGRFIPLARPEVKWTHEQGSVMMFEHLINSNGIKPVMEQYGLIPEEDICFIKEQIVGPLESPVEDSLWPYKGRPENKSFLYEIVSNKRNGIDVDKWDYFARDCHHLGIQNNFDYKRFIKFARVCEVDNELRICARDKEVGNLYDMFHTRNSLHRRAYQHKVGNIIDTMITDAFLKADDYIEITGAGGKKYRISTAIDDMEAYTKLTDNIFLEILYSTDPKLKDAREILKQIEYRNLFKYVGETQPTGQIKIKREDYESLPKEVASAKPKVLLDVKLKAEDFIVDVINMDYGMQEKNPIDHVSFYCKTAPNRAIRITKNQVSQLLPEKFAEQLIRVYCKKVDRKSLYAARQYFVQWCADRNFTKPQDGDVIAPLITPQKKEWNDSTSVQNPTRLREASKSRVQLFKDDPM

SMILES: N#C/C(=C\c1cc(C(F)(F)F)cc(C(F)(F)F)c1)C(N)=O [compound 23]
- isoTOP-ABPP ratio (reactivity profile), P00813_C75 (ADA C75 (P00813)): 1.1
- isoTOP-ABPP ratio (reactivity profile), Q15306_C194 (IRF4 C194 (Q15306)): 1.9
- isoTOP-ABPP ratio (reactivity profile), Q6L8Q7_C108 (PDE12 C108 (Q6L8Q7); 500 μm in-vitro ramos_231): 1.0
- isoTOP-ABPP ratio (reactivity profile), P15374_C95 (UCHL3 C95 (P15374); 500 μm in-vitro ramos): 1.1
- isoTOP-ABPP ratio (reactivity profile), P15374_C95 (UCHL3 C95 (P15374); 500 μm in-vitro ramos_231): 0.8

SMILES: CC(Br)C(=O)Nc1cc(C(F)(F)F)cc(C(F)(F)F)c1 (stereo not drawn) [compound 24]
- isoTOP-ABPP ratio (reactivity profile), P00813_C75 (ADA C75 (P00813)): 1.2
- isoTOP-ABPP ratio (reactivity profile), Q15306_C194 (IRF4 C194 (Q15306)): 1.9
- isoTOP-ABPP ratio (reactivity profile), Q6L8Q7_C108 (PDE12 C108 (Q6L8Q7); 500 μm in-vitro ramos): 1.4
- isoTOP-ABPP ratio (reactivity profile), Q9Y3Z3_C522 (SAMHD1 C522 (Q9Y3Z3); 500 μm in-vitro ramos): 1.1
- isoTOP-ABPP ratio (reactivity profile), P15374_C95 (UCHL3 C95 (P15374); 500 μm in-vitro ramos): 1.1

SMILES: CC(Cl)C(=O)Nc1cc(C(F)(F)F)cc(C(F)(F)F)c1 (stereo not drawn) [compound 25]
- isoTOP-ABPP ratio (reactivity profile), Q6L8Q7_C108 (PDE12 C108 (Q6L8Q7); 500 μm in-vitro ramos_231): 0.8
- isoTOP-ABPP ratio (reactivity profile), P15374_C95 (UCHL3 C95 (P15374); 500 μm in-vitro ramos_231): 0.8

SMILES: O=C(/C=C/c1ccccc1)Nc1cc(C(F)(F)F)cc(C(F)(F)F)c1 [compound 26]
- isoTOP-ABPP ratio (reactivity profile), P00813_C75 (ADA C75 (P00813)): 0.8
- isoTOP-ABPP ratio (reactivity profile), Q15306_C194 (IRF4 C194 (Q15306)): 1.1
- isoTOP-ABPP ratio (reactivity profile), Q6L8Q7_C108 (PDE12 C108 (Q6L8Q7); 500 μm in-vitro ramos): 1.1
- isoTOP-ABPP ratio (reactivity profile), Q9Y3Z3_C522 (SAMHD1 C522 (Q9Y3Z3); 500 μm in-vitro ramos): 0.9
- isoTOP-ABPP ratio (reactivity profile), P15374_C95 (UCHL3 C95 (P15374); 500 μm in-vitro ramos): 0.8

SMILES: O=C(CCl)N1CCN(CC(=O)N2CCOCC2)CC1 [compound 29]
- isoTOP-ABPP ratio (reactivity profile), Q15306_C194 (IRF4 C194 (Q15306)): 1.2
- isoTOP-ABPP ratio (reactivity profile), Q9Y3Z3_C522 (SAMHD1 C522 (Q9Y3Z3); 500 μm in-vitro ramos_231): 1.5
- isoTOP-ABPP ratio (reactivity profile), P15374_C95 (UCHL3 C95 (P15374); 500 μm in-vitro ramos): 1.0
- isoTOP-ABPP ratio (reactivity profile), P15374_C95 (UCHL3 C95 (P15374); 500 μm in-vitro ramos_231): 0.9

SMILES: O=C(CCl)N(Cc1ccc(F)cc1)C12CC3CC(CC(C3)C1)C2 [compound 34]
- isoTOP-ABPP reactivity ratio, P00813_C75 (ADA C75 (P00813)): 1.1

SMILES: O=C(CCl)Nc1ccccc1C1CCCCCC1 [compound 35]
- isoTOP-ABPP reactivity ratio, P00813_C75 (ADA C75 (P00813)): 1.1
- isoTOP-ABPP reactivity ratio, Q15306_C194 (IRF4 C194 (Q15306)): 1.0
- isoTOP-ABPP reactivity ratio, Q6L8Q7_C108 (PDE12 C108 (Q6L8Q7); in-vitro_ramos_231): 0.8

SMILES: C=CC(=O)N1CCC(c2noc3ccc(F)cc23)CC1 [compound 37]
- isoTOP-ABPP reactivity ratio, P00813_C75 (ADA C75 (P00813)): 0.9
- isoTOP-ABPP reactivity ratio, Q15306_C194 (IRF4 C194 (Q15306)): 0.9
- isoTOP-ABPP reactivity ratio, Q9Y3Z3_C522 (SAMHD1 C522 (Q9Y3Z3); 500 μm, in-vitro_ramos): 0.7

SMILES: C=CC(=O)Nc1cc(F)c(N2CCN(C(=O)OC(C)(C)C)CC2)c(F)c1 [compound 38]
- isoTOP-ABPP reactivity ratio, P00813_C75 (ADA C75 (P00813)): 2.3
- isoTOP-ABPP reactivity ratio, Q15306_C194 (IRF4 C194 (Q15306)): 2.1
- isoTOP-ABPP reactivity ratio, Q6L8Q7_C108 (PDE12 C108 (Q6L8Q7); in-vitro_ramos): 6.8
- isoTOP-ABPP reactivity ratio, Q6L8Q7_C108 (PDE12 C108 (Q6L8Q7); in-vitro_ramos_231): 0.9
- isoTOP-ABPP reactivity ratio, P15374_C95 (UCHL3 C95 (P15374); in-vitro_ramos): 12.5
- isoTOP-ABPP reactivity ratio, P15374_C95 (UCHL3 C95 (P15374); in-vitro_ramos_231): 2.7

SMILES: N#CC(=Cc1ccc(-c2ccccc2Cl)o1)C(N)=O [compound 42]
- isoTOP-ABPP reactivity profile ratio, P00813_C75 (ADA C75 (P00813)): 0.8
- isoTOP-ABPP reactivity profile ratio, Q15306_C194 (IRF4 C194 (Q15306)): 1.2
- isoTOP-ABPP reactivity profile ratio, P15374_C95 (UCHL3 C95 (P15374); in-vitro_ramos): 0.9

SMILES: COc1cc(NC(=O)CCl)cc(OC)c1 [compound 43]
- isoTOP-ABPP reactivity profile ratio, P00813_C75 (ADA C75 (P00813)): 1.2
- isoTOP-ABPP reactivity profile ratio, Q15306_C194 (IRF4 C194 (Q15306)): 3.0
- isoTOP-ABPP reactivity profile ratio, Q9Y3Z3_C522 (SAMHD1 C522 (Q9Y3Z3); 500 μm, in-vitro_ramos_231): 2.2
- isoTOP-ABPP reactivity profile ratio, P15374_C95 (UCHL3 C95 (P15374); in-vitro_ramos): 20.0

SMILES: C=CC(=O)N(c1ccccc1)C1CCCCC1 [compound 46]
- isoTOP-ABPP reactivity profile ratio, P15374_C95 (UCHL3 C95 (P15374); in-vitro_ramos_231): 1.0

SMILES: O=C(CCl)N1CCc2cc(Br)ccc21 [compound 50]
- isoTOP-ABPP reactivity profile ratio, Q6L8Q7_C108 (PDE12 C108 (Q6L8Q7); in-vitro_ramos_231): 1.8
- isoTOP-ABPP reactivity profile ratio, P15374_C95 (UCHL3 C95 (P15374); in-vitro_ramos_231): 1.3

SMILES: O=C(CCl)Nc1cccc2ncccc12 [compound 51]
- isoTOP-ABPP reactivity profile ratio, P00813_C75 (ADA C75 (P00813)): 1.0
- isoTOP-ABPP reactivity profile ratio, Q15306_C194 (IRF4 C194 (Q15306)): 1.4
- isoTOP-ABPP reactivity profile ratio, P15374_C95 (UCHL3 C95 (P15374); in-vitro_ramos): 0.9

SMILES: C=CC(=O)N1CCC(Cc2ccccc2)CC1 [compound 53]
- isoTOP-ABPP reactivity profile ratio, Q15306_C194 (IRF4 C194 (Q15306)): 1.0
- isoTOP-ABPP reactivity profile ratio, Q6L8Q7_C108 (PDE12 C108 (Q6L8Q7); in-vitro_ramos): 1.1
- isoTOP-ABPP reactivity profile ratio, Q9Y3Z3_C522 (SAMHD1 C522 (Q9Y3Z3); 500 μm, in-vitro_ramos): 0.7
- isoTOP-ABPP reactivity profile ratio, P15374_C95 (UCHL3 C95 (P15374); in-vitro_ramos): 0.7
